This note sets out measurements from US20260216174A1, “TREATMENT OF ER+ BREAST CANCER COMPRISING HOMOLOGOUS RECOMBINATION DEFICIENCY USING PARG INHIBITOR” (IDEAYA BIOSCIENCES, INC., priority 2023, published 2026).

What all share (assay): Cellular antiproliferative response, Assay 2 (nuclear dye intensity)
Format in all cases: cell-based

One test has as its system AU565. The settings on record: Homo sapiens, 240 h; AU565, HR mutant CHEK2, Assay 2, 10-day incubation; read-out: Log10 (IC50) (converted). As to the method:
(§1) Compound A was tested in a cell line panel. Cell lines were grown in RPMI 1640, 10% FBS, 2 mM L-alanyl-L-glutamine, 1 mM Na pyruvate, or a special medium. Cells were seeded into 384-well plates and incubated in a humidified atmosphere of 5% CO2 at 37° C. The following day, Compound A was added by serial dilution in half-log steps from the highest test concentration of 30 μM and assayed over ten concentrations. A time zero untreated cell plate was also generated. At seven days post-seeding, the growth media were replaced, and the plates were re-dosed with the test compound. After a 10-day incubation period, cells were fixed and stained with a fluorescent nuclear dye. Automated fluorescence microscopy was carried out using a Molecular Devices ImageXpress Micro XL high-content imager, and images were collected with a 4× objective. 16-bit TIFF images were acquired and analyzed with MetaXpress 5.1.0.41 software.
(§2) Cell proliferation effects of Compound A was measured using the fluorescent intensity of the incorporated nuclear dye as a percent of the control (POC), where POC=(Ix/I0)×100. Ix=nuclear intensity at concentration x and I0=average nuclear intensity of the untreated vehicle wells. Cellular IC50 was calculated using nonlinear regression to a sigmoidal single-site dose response model. Curve fitting, calculations, and report generation was performed using a custom data reduction engine and MathIQ based software (AIM).

A further test deals with BT-474. To be noted: Homo sapiens, 240 h; BT-474, HR mutant BRCA2, Assay 2, 10-day incubation; read-out: Log10 (IC50) (converted). Here is the method:
as §1, §2

Another test has as its system CAL-51. To be noted: Homo sapiens, 240 h; CAL-51, HR mutant BRCA2, CHEK1, Assay 2, 10-day incubation; read-out: Log10 (IC50) (converted). As to the method:
as §1, §2

The next test has as its system CAL-85-1. The settings on record: Homo sapiens, 240 h; CAL-85-1, HR mutant BRCA2, Assay 2, 10-day incubation; read-out: Log10 (IC50) (converted). Here is the method: as §1, §2
In another test the test system is EFM-19. The settings on record: Homo sapiens, 240 h; EFM-19, HR mutant ATM, Assay 2, 10-day incubation; read-out: Log10 (IC50) (converted). Here is the method:
as §1, §2

The test system of a further test is HCC1395. The settings on record: Homo sapiens, 240 h; HCC1395, HR mutant BRCA1, BRCA2, Assay 2, 10-day incubation; read-out: Log10 (IC50) (converted). As to the method:
as §1, §2

A further test concerns HCC1428. To be noted: Homo sapiens, 240 h; HCC1428, HR mutant BRCA2, Assay 2, 10-day incubation; read-out: Log10 (IC50) (converted). Here is the method:
as §1, §2

The test system of another test is HCC1569. To be noted: Homo sapiens, 240 h; HCC1569, HR mutant BRCA2, Assay 2, 10-day incubation; read-out: Log10 (IC50) (converted). As to the method:
as §1, §2

A further test concerns HCC1599. The settings on record: Homo sapiens, 240 h; HCC1599, HR mutant BRCA2, Assay 2, 10-day incubation; read-out: Log10 (IC50) (converted). As to the method:
as §1, §2

For another test, the system named is HCC1937. To be noted: Homo sapiens, 240 h; HCC1937, HR mutant BRCA1, Assay 2, 10-day incubation; read-out: Log10 (IC50) (converted). Here is the method: as §1, §2
A further test deals with HCC1954. To be noted: Homo sapiens, 240 h; HCC1954, HR mutant BRCA1, Assay 2, 10-day incubation; read-out: Log10 (IC50) (converted). As to the method: as §1, §2
Another test has as its system HCC202. The settings on record: 240 h; HCC202, HR mutant BRCA2, Assay 2, 10-day incubation; read-out: Log10 (IC50) (converted). Here is the method: as §1, §2
A further test has as its system MDA-MB-436. To be noted: Homo sapiens, 240 h; MDA-MB-436, HR mutant BRCA1, Assay 2, 10-day incubation; read-out: Log10 (IC50) (converted). As to the method: as §1, §2

On to `C[C@H]1CN(c2cc(S(=O)(=O)NC3(C)CC3)cc3c2cnn3-c2nnc(C(F)F)s2)C[C@H](C)N1` [Compound A, 1-(5-(difluoromethyl)-1,3,4-thiadiazol-2-yl)-4-((3S,5S)-3,5-dimethylpiperazin-1-yl)-N-(1-methylcyclopropyl)-1H-indazole-6-sulfonamide], for which the half-inhibitory concentration (IC50) with AU565 is 0.0523 µM; with BT-474 it was 0.847 µM; in the test with CAL-51, 3.53 µM; in the test on CAL-85-1, 0.1 µM; with EFM-19, 0.689 µM; with HCC1395 it was 0.03 µM. The IC50 in the test with HCC1428 was 0.01 µM; in the test on HCC1569 it was 0.08 µM; in the test on HCC1599 it was 1.31 µM; in the test on HCC1937, 0.22 µM; in the test with HCC1954, 0.37 µM; in the test on HCC202, 0.64 µM. The IC50 in the test with MDA-MB-436 is 0.0524 µM.

As usually defined, the IC50 is the concentration needed to halve the response being measured.
